# Data published in patent US7138231B2 (priority 2000, dated 2006).
# “Also recorded” adds a separate entry of the source. Where two headings read alike, the source gives them in different places.
# What was measured:
# [1] = test system: HIV-1 variants with protease substitutions; conditions: cited from earlier work
# [2] = test system: HIV-1 protease site-directed mutants (N88S, L63P, V77I, M46L) in resistance test vector; assay: Phenotypic susceptibility assay of resistance test vectors with site-directed mutations in PR
# From the text: The resistance test vectors containing a functional luciferase gene cassette were constructed and host cells were transfected with the resistance test vector DNA. […] The resistance test vector viral particles produced by transfecting the resistance test vector DNA into host cells, either in the presence or absence of protease inhibitors, were used to infect target host cells grown either in the absence of NRTI or NNRTI or in the presence of increasing concentrations of the drug. Luciferase activity in infected target host cells in the presence of drug was compared to the luciferase activity in infected target host cells in the absence of drug. […] The IC50 values were determined by plotting percent drug inhibition vs. log10 drug concentration.
# Host cells were seeded in 10-cm-diameter dishes and were transfected one day after plating with resistance test vector plasmid DNA and the envelope expression vector. Transfections were performed using a calcium-phosphate co-precipitation procedure. The cell culture media containing the DNA precipitate was replaced with fresh medium, from one to 24 hours, after transfection. Cell culture media containing resistance test vector viral particles was harvested one to four days after transfection and was passed through a 0.45-mm filter before being stored at −80° C. HIV capsid protein (p24) levels in the harvested cell culture media were determined by an EIA method as described by the manufacturer (SIAC; Frederick, Md.). Before infection, target cells (293 and 293/T) were plated in cell culture media. Control infections were performed using cell culture media from mock transfections (no DNA) or transfections containing the resistance test vector plasmid DNA without the envelope expression plasmid. One to three or more days after infection the media was removed and cell lysis buffer (Promega) was added to each well. Cell lysates were assayed for luciferase activity. The inhibitory effect of the drug was determined using the following equation: % luciferase inhibition=[1−(RLUluc[drug]RLUluc)]×100 where RLUluc [drug] is the relative light unit of luciferase activity in infected cells in the presence of drug and RLUluc is the Relative Light Unit of luciferase activity in infected cells in the absence of drug. IC50 values were obtained from the sigmoidal curves that were generated from the data by plotting the percent inhibition of luciferase activity vs. the log10 drug concentration.
# Mutations are introduced into the resistance test vector through any of the widely known methods for site-directed mutagenesis. […] A resistance test vector containing the specific mutation or group of mutations are then tested using the phenotypic susceptibility assay described above and the susceptibility profile is compared to that of a genetically defined wild-type (drug susceptible) resistance test vector which lacks the specific mutations.
# Resistance test vectors were constructed containing the N88S mutation alone and in combination with other substitutions in PR (L63P, V77I and M46L) known to modulate the HIV susceptibility to PRIs. Mutations were introduced into the resistance test vector using the mega-primer PCR method for site-directed mutagenesis.
# [3] = test system: HIV-1 patient viruses with protease L90M; assay: Phenotypic susceptibility profiles of 58 patient virus samples with L90M, no other primary mutations; format: cell-based; conditions: {}
# HIV-1 = conditions: cited from earlier work
# HIV-2 = conditions: cited from earlier work
# [4] = test system: HIV-1 patient-derived protease and reverse transcriptase segments (N88S in PR) in resistance test vectors; assay: Phenotypic drug susceptibility test with resistance test vectors from patient samples; format: cell-based; conditions: for Fold Change vs. reference: N88S
# [5] = target: HIV-1 protease mutants (I50V, M46I/I47V/I50V, L10F, M46I, I47V) (Human immunodeficiency virus type 1 group M subtype B, UniProt P04585, I538V); conditions: I50V single-mutant protease; cited from earlier work
# [6] = target: HIV-1 protease mutants (I50V, M46I/I47V/I50V, L10F, M46I, I47V) (Human immunodeficiency virus type 1 group M subtype B, UniProt P04585, I535V/I538V/M534I); conditions: triple mutant M46I/I47V/I50V; cited from earlier work
# [7] = test system: HIV-1 protease mutants (I50V, M46I/I47V/I50V, L10F, M46I, I47V); conditions: single mutants L10F, M46I, and I47V; cited from earlier work
# [8] = test system: HIV-1 patient viruses with protease L90M; assay: Phenotypic susceptibility profiles of 333 patient virus samples with L90M (not 30 or 50); format: cell-based
smiles,measurement,setting,value
CC(C)CN(C[C@@H](O)[C@H](Cc1ccccc1)NC(=O)O[C@H]1CCOC1)S(=O)(=O)c1ccc(N)cc1 [amprenavir],decrease in susceptibility,[1]; I50V as a single mutation,two- to threefold
same,resistance of selected variants,"[1]; in vitro passage, L10F, M46I, I47V, I50V",100 fold
same,change in susceptibility,[1]; other substitutions as single mutations in HXB2,did not result in reduced susceptibility
same,fold less susceptible than wild-type virus,"[1]; triple mutant clone M46I, I47V, I50V",20 fold
same,change in susceptibility compared to wild type control RTV,[2]; L63P-N88S-RTV,increase in the susceptibility
same,change in susceptibility compared to wild type control RTV,[2]; L63P-V77I-N88S-RTV,increase in the susceptibility; also recorded: increased susceptibility
same,change in susceptibility compared to wild type control RTV,[2]; M46L-L63P-N88S-RTV,increase in the susceptibility
same,change in susceptibility compared to wild type control RTV,[2]; M46L-L63P-V77I-N88S-RTV,increase in the susceptibility
same,change in susceptibility compared to wild type control RTV,[2]; N88S-RTV,more susceptible
same,Fold Change vs. reference,[2]; site-directed mutation N88S,0.04 fold
same,Fold Change vs. reference,[2]; site-directed mutations L63P,1.06 fold
same,Fold Change vs. reference,"[2]; site-directed mutations L63P, N88S",0.11 fold
same,Fold Change vs. reference,"[2]; site-directed mutations L63P, V77I",0.91 fold
same,Fold Change vs. reference,"[2]; site-directed mutations L63P, V77I, N88S",0.08 fold
same,Fold Change vs. reference,"[2]; site-directed mutations M46L, L63P, N88S",0.12 fold
same,Fold Change vs. reference,"[2]; site-directed mutations M46L, L63P, V77I, N88S",0.14 fold
same,Percent of viruses with indicated primary mutation(s) which are drug sensitive (fold change in IC50 < 2.5),[3],65.5%
same,IC50,HIV-1; read-out: IC50,80 nM
same,IC50,HIV-1; read-out: mean IC50,12 nM
same,IC50,HIV-2,340 nM
same,Fold Change vs. reference,"[4]; patient sample 360, prior PRI IDV, PR I13V, K20M, M36V, N37A, M46I, I62V, L63P, I93L",0.15 fold
same,Fold Change vs. reference,"[4]; patient sample 627, prior PRI IDV, PR I13I/V, E35D, M46L, L63P, I64V, I73V",0.09 fold
same,Fold Change vs. reference,"[4]; patient sample 0732, prior PRI NFV, PR K14R, I15V, K20T, E35D, M36I, R41K, I62V, L63Q",0.08 fold
same,Fold Change vs. reference,"[4]; patient sample 0910, prior PRI NFV, PR M46I, L63P, V77I, I93I/L",0.16 fold
same,Fold Change vs. reference,"[4]; patient sample 1208, prior PRI NFV, PR I62V, L63P, V77I",0.10 fold
same,Fold Change vs. reference,"[4]; patient sample 3542, prior PRI IDV, PR I13V, K14R, N37D, M46I, L63P, I93L",0.16 fold
same,Fold Change vs. reference,"[4]; patient sample 3654, PR I13V, R41K, M46I, L63P, V77I, I93L",0.20 fold
same,change in susceptibility,[4]; patient sample RTV-360,increase
same,change in susceptibility,[4]; patient sample RTV-627,increase
same,change in susceptibility,[4]; patient sample RTV-0732,increase; also recorded: increased susceptibility
same,change in susceptibility,[4]; patient sample RTV-0910,increase
same,change in susceptibility,[4]; patient sample RTV-1208,increase
same,change in susceptibility,[4]; patient sample RTV-3542,increase
same,change in susceptibility,[4]; patient sample RTV-3654,increase
same,fold reduction in the inhibition constant (Kl) compared to wild-type enzyme,[5],80 fold
same,fold-reduced Kl compared to wild-type enzyme,[6],270 fold
same,affinity,[7],did not display reduced affinity
same,wt % > 2.5,"[8]; Amprenavir FC>2.5, L90M, position 10 wild type",30.8%
same,wt % > 2.5,"[8]; Amprenavir FC>2.5, L90M, position 15 wild type",63.6%
same,wt % > 2.5,"[8]; Amprenavir FC>2.5, L90M, position 33 wild type",57.4%
same,wt % > 2.5,"[8]; Amprenavir FC>2.5, L90M, position 36 wild type",55.3%
same,wt % > 2.5,"[8]; Amprenavir FC>2.5, L90M, position 46 wild type",46.2%
same,wt % > 2.5,"[8]; Amprenavir FC>2.5, L90M, position 53 wild type",57.6%
same,wt % > 2.5,"[8]; Amprenavir FC>2.5, L90M, position 54 wild type",47.5%
same,wt % > 2.5,"[8]; Amprenavir FC>2.5, L90M, position 58 wild type",58.7%
same,wt % > 2.5,"[8]; Amprenavir FC>2.5, L90M, position 62 wild type",55.3%
same,wt % > 2.5,"[8]; Amprenavir FC>2.5, L90M, position 74 wild type",62.5%
same,wt % > 2.5,"[8]; Amprenavir FC>2.5, L90M, position 82 wild type",53.5%
same,wt % > 2.5,"[8]; Amprenavir FC>2.5, L90M, position 84 wild type",48.5%
same,wt % > 2.5,"[8]; Amprenavir FC>2.5, L90M, position 89 wild type",59.3%
same,wt % > 2.5,"[8]; Amprenavir FC>2.5, L90M, position 92 wild type",58.6%
same,wt % > 2.5,"[8]; Amprenavir FC>2.5, L90M, position 95 wild type",58.7%
same,mt % > 2.5,"[8]; Amprenavir FC>2.5, listed as 90: all samples with L90M",60.4%
same,wt % > 10,"[8]; Amprenavir FC>10, L90M, position 10 wild type",2.6%
same,wt % > 10,"[8]; Amprenavir FC>10, L90M, position 13 wild type",10.9%
same,wt % > 10,"[8]; Amprenavir FC>10, L90M, position 32 wild type",11.7%
same,wt % > 10,"[8]; Amprenavir FC>10, L90M, position 33 wild type",8.4%
same,wt % > 10,"[8]; Amprenavir FC>10, L90M, position 46 wild type",8.3%
same,wt % > 10,"[8]; Amprenavir FC>10, L90M, position 47 wild type",11.9%
same,wt % > 10,"[8]; Amprenavir FC>10, L90M, position 53 wild type",11.5%
same,wt % > 10,"[8]; Amprenavir FC>10, L90M, position 54 wild type",5.9%
same,wt % > 10,"[8]; Amprenavir FC>10, L90M, position 55 wild type",11.6%
same,wt % > 10,"[8]; Amprenavir FC>10, L90M, position 66 wild type",11.9%
same,wt % > 10,"[8]; Amprenavir FC>10, L90M, position 69 wild type",14.2%
same,wt % > 10,"[8]; Amprenavir FC>10, L90M, position 84 wild type",8.7%
same,% > 10,"[8]; Amprenavir FC>10, listed as 90: all samples with L90M",12.9%
same,Percent of viruses with indicated primary mutation(s) with reduced susceptibility (fold change in IC50 > 2.5),[8]; L90M,60.4%
same,Percent of viruses with indicated primary mutation(s) with reduced susceptibility (fold change in IC50 > 10),[8]; L90M,12.9%
